A value given as a limit tells only on which side of the number the result lay.

This note sets out measurements from ChEMBL document CHEMBL1141775, “Friedolanostanes and lanostanes from the leaves of Garcinia hombroniana” (2005).

This test relates to Staphylococcus aureus. Description: Antibacterial activity against methicillin-resistant Staphylococcus aureus. Type of test: functional.
A word on the MIC: it is the lowest concentration that inhibits growth of the organism. Turning to `C[C@H](CC(=O)C[C@@H](C)C1=CC[C@@]2(C)[C@@H]3CC[C@H]4C(C)(C)[C@@H](O)CC[C@]4(C)C3=CC[C@]12C)C(=O)O` [GARCIHOMBRONANES D], the MIC was over 128 µg/mL.

On to `COC(=O)/C(C)=C/[C@H](O)C[C@@H](C)[C@]1(C)CC=C2C3=C(CC[C@]21C)[C@@]1(C)CC[C@@H](O)C(C)(C)[C@@H]1CC3` [GARCIHOMBRONANES C], for which the MIC is over 128 µg/mL.

As for `COC(=O)[C@H](C)CC(=O)C[C@@H](C)C1=CC[C@@]2(C)[C@@H]3CC[C@H]4C(C)(C)[C@H](O)CC[C@]4(C)C3=CC[C@]12C` [GARCIHOMBRONANE J], the MIC was over 128 µg/mL.

As to `CC(C)=C/C=C\[C@@H](C)[C@]1(C)CC=C2[C@@H]3CC[C@H]4C(C)(C)[C@H](O)CC[C@]4(C)[C@@]3(O)CC[C@]21C` [GARCIHOMBRONANE F], the MIC was over 128 µg/mL.

The compound `C/C(=C\CC[C@@H](C)[C@]1(C)CC[C@]2(C)C1=CC[C@@]1(O)[C@H]2CC[C@H]2C(C)(C)[C@@H](O)CC[C@@]21C)C(=O)O` [GARCIHOMBRONANE I] registered an MIC of over 128 µg/mL.

`COC(=O)[C@H](C)CC(=O)C[C@@H](C)C1=CC[C@@]2(C)[C@@H]3CC[C@H]4C(C)(C)[C@@H](O)CC[C@]4(C)C3=CC[C@]12C` came in with an MIC of over 128 µg/mL.

Compound `C/C(=C\C=C/[C@@H](C)[C@]1(C)CC[C@]2(C)C1=CC[C@@]1(O)[C@H]2CC[C@H]2C(C)(C)[C@H](O)CC[C@@]21C)C(=O)O` [GARCIHOMBRONANE G] came in with an MIC of over 128 µg/mL.

In the case of `C/C(=C\CC[C@@H](C)[C@]1(C)CC[C@]2(C)C1=CC[C@@]1(O)[C@H]2CC[C@H]2C(C)(C)[C@H](O)CC[C@@]21C)C(=O)O` [GARCIHOMBRONANE H], the MIC was over 128 µg/mL.

In turn, `COC(=O)/C(C)=C/[C@H](O)C[C@@H](C)[C@]1(C)CC=C2[C@@H]3CC[C@H]4C(C)(C)[C@H](O)CC[C@]4(C)[C@@]3(O)CC[C@]21C` [GARCIHOMBRONANE B] had an MIC of over 128 µg/mL.

Compound `C[C@H](CC(=O)C[C@@H](C)C1=CC[C@@]2(C)[C@@H]3CC[C@H]4C(C)(C)[C@H](O)CC[C@]4(C)C3=CC[C@]12C)C(=O)O` [GARCIHOMBRONANES E] had an MIC of over 128 µg/mL.
